In series [1] the test system is HL-60 human acute myeloid leukaemia cells. The note with it: HL-60 sc in SCID mice; for T-C: delay vs control to reach 1 g. As to the method:
The treatment started 12 days later tumor cells injection when tumors were palpable.
When combined, Compound 1 was administered in the interval between the bortezomib treatments at days 13, 14, 15, 17, 18, 19, 21, 22, 23, 25, 26 and 27. […] Tumor growth was assessed by caliper.

Series [2] has as its system DU145 prostate carcinoma cells. In words: In vivo antitumor efficacy, DU145 prostate carcinoma subcutaneous xenograft in athymic mice. The note with it: Compound 1 15 mg/kg ip BID, Bevacizumab 20 mg/kg ip days 9, 13, 17; for Time to reach 1 g / T-C: DU145 sc in athymic mice; for T-C: delay vs control to reach 1 g.
Description: Balb, Nu\Nu male mice, from Harlan (Italy), were maintained in cages with paper filter cover, food and bedding sterilized and water acidified. 2.5×10^6 DU145 prostate carcinoma cells (from the American Type Culture Collection) were injected subcutaneously in athymic mice. […] The treatment started at day 9 after cell injection, when tumors were palpable with a tumor weight mean for all the groups of 0.15 g.
Bevacizumab was administered intraperitoneally in a volume of 10 ml/kg at the dose of 20 mg/kg on days 9, 13, 17 from the days of tumor cells injection. […] Tumor growth and body weight were measured every 3 days. Tumor growth was assessed by caliper. […] This delay (T-C value) was defined as the difference of time (in days) required for the treatment group (T) and the control group(C) tumors to reach a predetermined size (1 g). Toxicity was evaluated on the basis of body weight reduction.
The test system of series [3] is HL-60 human acute myeloid leukaemia cells. The following applies: HL-60 model; previously demonstrated; cited from earlier work.
Series [4] has as its system DU145 prostate carcinoma cells. The following applies: previously demonstrated (The Prostate 36: 1-10, 1998); cited from earlier work.
The mark [5] stands for this setting: Bortezomib 1 mg/kg iv days 12, 16, 20, 24 (combination: + Compound 1 15 mg/kg ip).
The mark [6] stands for this setting: Compound 1 15 mg/kg ip BID, Bortezomib 0.5 mg/kg iv days 12, 16, 20, 24.

Read-outs that look alike come from different tables or passages of the source.

Turning to `CC(C)C[C@H](NC(=O)[C@H](Cc1ccccc1)NC(=O)c1cnccn1)B(O)O` [Bortezomib], the “Time to reach 1 g” value in series [1] (setting [5]) was 23.8 days; in series [1] (setting [6]), 19 days. In addition, the “T-C” value in series [1] (setting [5]) was 8.2 days; in series [1] (setting [6]) it was 3.4 days.
With `CO[C@@H](C(=O)N1Cc2[nH]nc(NC(=O)c3ccc(N4CCN(C)CC4)cc3)c2C1)c1ccccc1` [Compound 1, N-{5-[(2R)-2-methoxy-2-phenylethanoyl]-1,4,5,6-tetrahydropyrrolo[3,4-c]pyrazol-3-yl}-4-(4-methylpiperazin-1-yl)benzamide], in series [2], the “Time to reach 1 g” value worked out at 23.9 days and the “T-C” value came to 8.5 days. The “effect on growth of the tumor model in vivo” value in series [3] is listed as “inhibits growth of the model in vivo”. For the same compound, in series [1] (setting [6]), the “Time to reach 1 g” value worked out at 24.7 days and the “T-C” value is 9.1 days.
For the compound “Bevacizumab: antibody to vascular endothelial growth factor; marketed as Avastin”, in series [2], the “Time to reach 1 g” value stood at 18.5 days and the “T-C” value was found to be 3.1 days. Also, the Toxicity in series [2] (evaluated on body weight reduction) was 0/8. Further, the “effect on angiogenesis and growth of the tumor model in vivo” value in series [4] is “inhibits angiogenesis and growth of the model in vivo”.

The values above are taken from US20110129467A1, “THERAPEUTIC COMBINATION COMPRISING AN AURORA KINASE INHIBITOR AND ANTIPROLIFERATIVE AGENTS” (NERVIANO MEDICAL SCIENCES S.R.L., priority 2008, published 2011).
